SMILES strings stand for the structures. Where two headings read alike, the source gives them in different places.

In general, Km refers to the concentration of substrate that gives half-maximal velocity.

The test system of data set [1] is nitric oxide synthase (NOS). The following applies: read-out: Michaelis constant (KM) for substrate; cited from earlier work.
The conditions of data set [2]: in vivo; cited from earlier work.
The conditions of data set [3]: cited from earlier work.
The conditions of data set [4]: adults; cited from earlier work.
The conditions of data set [5]: man, cited from earlier work.
The subject of data set [6] is myocardial ischemia/reperfusion (I/R) injury.
For data set [7] the following is noted: cited from earlier work; for half life of nitrite in whole blood: human whole blood.
The conditions of data set [8]: two year study, male or female mice; cited from earlier work.
For data set [9] the following is noted: two year study, male or female rats; cited from earlier work.
For data set [10] the following is noted: 50 mg/L nitrite in the drinking water for 7 days. The source says:
Enzymatic NO insufficiency is a hallmark of a number of diseases including cardiovascular disease. […] The mice were fed standard rodent chow or low NOx diet.

Data set [11] concerns myocardial ischemia/reperfusion injury. The following applies: eNOS-/- mice, low NOx diet, 50 mg/L nitrite, 30 minutes ischemia and 24 hour reperfusion.
For data set [12] the following is noted: low NOx diet.
Data set [13] has as its system lesion formation on the abdominal aorta. The following applies: 50 mg/L nitrite for 12 weeks, high fat diet. From the text:
Although the LDb mice spontaneously develop atherosclerosis on normal rodent chow, the addition of a high fat diet will accelerate the process from 8 months to 12 weeks.

For data set [14] the following is noted: cited from earlier work. This is another data set of the same source.
Another data set deals with tissue homogenates. The following applies: at 0.5% oxygen; cited from earlier work.
The mark [15] stands for this setting: 50 mg/L nitrite in the drinking water for 1 week.

In the case of `N=C(N)NCCC[C@H](N)C(=O)O` [L-arginine], the Km in [1] was 2900 nM.

For `O=[N+]([O-])[O-].[Na+]` [nitrate, sodium nitrate], the “circulating half life of nitrate” value in [2] is 5 to 8 h. For the same compound, the “ingested nitrate actively taken up by the salivary glands” value in data set [3] (excreted in the saliva) is reported as at most 25%. Further, in data set [3] (in vivo), the “salivary nitrate reduced to nitrite by bacteria in the mouth” value is on record as “Approximately 20%”. For the same compound, the “clearance of nitrate from blood to urine” value in data set [4] is given as “Approximately 20 ml/min”. The “poisoning, total oral daily dose” value in [5] (oral) was over 4 g. Besides, in data set [5], the dose generally fatal was 13 to 15 g; the “dose that may be fatal” value is recorded as 8 g; the “poisoning, single dose” value is “more than 1 g”.

For the compound `O=NO` [nitrite, sodium nitrite], in data set [6] (low NOx diet with nitrite-supplemented drinking water), the “survival 24 hours post-myocardial infarction” value worked out at 76.9%. For the same compound, in data set [6] (low NOx diet, 50 mg/L sodium nitrite ad libitum in the drinking water), the “reversal of the increased myocardial infarct size” value is reported as 57%. In addition, in [7] (circulation), the “half-life of nitrite in the circulation” value was 110 s. Further, the “half life of nitrite in whole blood” value in [7] was 110 s. Besides, the “half life of nitrite in whole blood” value in data set [7] (listed as NO2^−) was “about 110 seconds”. Also, in data set [8], the carcinogenic activity result is “no evidence of carcinogenic activity”. Further, the carcinogenic activity entry in [9] is “no evidence of carcinogenic activity”. In data set [10], the “plasma and cardiac nitroso in eNOS-/- mice” value is recorded as “above C57 control levels”; the “plasma nitrite in eNOS-/- mice” value is “restores”. In data set [11], the “protection from myocardial ischemia/reperfusion injury” value is listed as “protected”. Moreover, in data set [12] (setting [15]), the “plasma and heart nitroso levels” value is “replenished and increased”; the “plasma and heart steady-state nitrite and nitrate concentrations” value is given as “restored”. The nitrosyl-heme products result in data set [12] (nitrite supplementation in the drinking water) is “replenished”. Moreover, the “less lesion formation on the abdominal aorta than control group” value in [13] is recorded as 20%. In addition, the fatal dose in data set [14] (in humans) was 22 to 23 mg/kg. Further, the “fatal dose of nitrite” value in [14] (in vivo) is given as 22-23 mg/kg body weight.

Consider `O=O` [oxygen], for which, in the data set on tissue homogenates, the “inhibition of nitrite reduction” value was 80%.

Values taken from patent US9119823B2 (priority 2008, dated 2015).
